Measured values: patent USRE38332E1, “Selected soluble esters of hydroxyl-containing indolocarbazoles” (Cephalon, Inc., priority 1995, dated 2003)

Key:
[1] = system: ChAT activity in spinal cord cultures; experiment: Effect of indolocarbazole esters on ChAT activity in dissociated spinal cord cultures; format: cell-based, rat
Protocol: The effect of indolocarbazole esters of the invention on ChAT activity was assayed in dissociated spinal cord cultures prepared from fetal rats. ChAT is the enzyme that catalyzes the synthesis of the neurotransmitter acetylcholine, and it is a specific biochemical marker for cholinergic neurons. In the spinal cord, the large majority of cholinergic neurons are motor neurons. Assay of this enzyme may thus be used as an indication of the effects of a factor (or factors) on the survival and/or differentiation of cholinergic neurons and/or regulation of this enzyme. The procedure used for the assay is that described in Example 6 of WO 94/02488. Fourteen esters were tested in the spinal cord ChAT assay to determine their relative efficacy, and the results are summarized in Table 4.

[2] = Stability of the esters in buffered solution (conversion to indolocarbazole I-5, HPLC); format: physicochemical; conditions: buffer solutions, 24 hours
Protocol: Solution 5 was a DMSO control.
HPLC conditions were as follows:
The pH of the compounds in water varied from 2 to 5 while the buffers remained approximately the same at 3.6, 6.7 and 7.8 for the 10 mM acetate, phosphate and Tris, respectively.
Acetate buffers at pH 2, 3, 4, 5 and 6 were prepared as follows. A total of 6.8 g of sodium acetate trihydrate was added to one liter of water, and the mixture was stirred until the solid was completely dissolved. One hundred ml aliquots were placed into 150 ml Erlenmeyer flasks, and the pH values were adjusted with HCl to pH 2, 3, 4, 5, and 6. A concentration of 50 mM was chosen to reduce the effects of compound addition. The indolocarbazole ester of Example 14 was investigated only with the acetate buffers. The rates of conversion of I-5 (the appearance of indolocarbazole I-5) as a function of pH are shown in FIGS. 3, 4, and 5 for the indolocarbazole esters of Examples 14, 8, and 11, respectively.

[3] = In vitro metabolism of I-5 esters in rat liver S-9 fraction; format: in vitro ADME; conditions: 2 mg/mL protein, 5000 ng/mL
Protocol: (§1) Rat and human liver S-9 fractions (a mixture of cytosol and microsomes) were frozen immediately after preparation. Each aliquot was thawed once for use in incubations. Stock solutions of the indolocarbazole esters were prepared in DMSO. These were used to prepare standard curves in heat inactivated S-9 fraction that had been diluted with 0.2M phosphate buffer, pH 7.4 to yield a 2 mg/mL protein concentration. Heat inactivated S-9 was divided into 500 μL aliquots, mixed with an aliquot of the internal standard, and spiked with the respective stock ester solutions to prepare the standard curve. Incubations containing liver S-9 fraction were prepared by diluting the S-9 fraction in 0.2M phosphate buffer, pH 7.4 to yield a 2 mg/mL protein concentration. Samples (500 μL) were placed in screw-cap vials, mixed with internal standard, and spiked with stock solutions of the respective esters to yield a nominal concentration of 5000 ng/mL.
Incubations were then performed at 37° C. in a shaking water bath for 0, 0.5, 1, 2, 5, 10, 15, 30, and 60 minutes and quenched by addition of 5 mL methylene chloride. All tubes (standards and experimentals) were extracted for 15 minutes by shaking, and centrifuged. The methylene chloride layer was removed, dried under a stream of nitrogen, and reconstituted in DMSO. Fifty μL of the reconstituted extracts were analyzed by reverse-phase HPLC with detection at 290 nm. The mobile phase and gradient conditions are given below: […]

[4] = In vitro metabolism of I-5 esters in human liver S-9 fraction; format: in vitro ADME; conditions: 2 mg/mL protein
Protocol: as §1
Incubations were then performed at 37° C. in a shaking water bath for 0, 0.5, 1, 2, 5, 10, 15, 30, and 60 minutes and quenched by addition of 5 mL methylene chloride. All tubes (standards and experimentals) were extracted for 15 minutes by shaking, and centrifuged. […] Fifty μL of the reconstituted extracts were analyzed by reverse-phase HPLC with detection at 290 nm. […]

[5] = In vivo metabolism and intravenous pharmacokinetics of I-5 esters in male Sprague-Dawley rats; conditions: intravenous, rat; for hydrolysis to indolocarbazole I-5 in vivo: 5 mg/kg dose of I-5 equivalent
Protocol: Groups of 12 male Sprague-Dawley rats were administered either DMAB dihydrochloride or β-alaninate hydrochloride through the lateral tail vein in a vehicle consisting of 0.05M acetate buffer, pH 5.0 containing 20% polyethylene glycol. The volume of the dosing solution was adjusted on the basis of body weight to deliver a 5 mg/kg dose of indolocarbazole I-5 after complete hydrolysis of the respective indolocarbazole ester. At 5, 30, 60, and 120 minutes after injection, the animals were anesthetized with carbon dioxide and a sample of whole blood was obtained by cardiac puncture. The blood was placed into a 10 mL heparinized tube containing 100 μL 50% potassium fluoride (an inhibitor of plasma esterases). Following centrifugation, the resulting plasma was frozen in a dry-ice/isopropanol bath and kept frozen at −90° C. prior to analysis.
For analysis, the samples were thawed, internal standard was added, and the mixture was extracted with 5 mL methylene chloride. Standards in rat plasma were prepared as described previously. All tubes (standards and experimentals) were extracted for 15 minutes by shaking, and centrifuged. The methylene chloride layer was removed, dried under a stream of nitrogen, and reconstituted in DMSO. Fifty μL of the reconstituted extracts were analyzed by reverse-phase HPLC with detection at 290 nm. The mobile phase and gradient conditions are the same as those given in Example 17.

[6] = Solubility of the esters at 1 mg/ml in water and buffer solutions; conditions: for solubility in Tris buffer: 10 mM Tris buffer pH 9; for solubility in acetate buffer: 10 mM acetate buffer pH 4; for solubility in phosphate buffer: 10 mM phosphate buffer pH 7; for solubility in water: water (Solution 1)
Protocol: Indolocarbazole esters were dissolved in water, dimethylsulfoxide (DMSO) and the following buffer solutions to determine solubility and to observe conversion to indolocarbazole I-5. Samples were analyzed by HPLC using UV detection at 290 nm.
Solution 2 was a 10 mM acetate buffer at pH 4 which was prepared by weighing 0.68 g of sodium acetate 3H2O into 500 ml of water and adjusting the pH with acetic acid.
Solution 3 was a 10 mM phosphate buffer, pH 7, which was prepared by weighing 0.30 g of monobasic sodium phosphate and 0.36 g of dibasic sodium phosphate into 500 ml of water, stirring until completely dissolved, and adjusting the pH with hydrochloric acid.
Solution 4 was a 10 mM Tris buffer, pH 9, which was prepared by weighing 0.79 g of Tris (tris(hydroxymethyl)aminomethane hydrochloride) into 500 ml of water, stirring until completely dissolved, and adjusting the pH with sodium hydroxide.
Sample solutions were prepared by weighing 0.5-1 mg of the indolocarbazole ester into an amber 1.5 ml autosampler vial, to which the appropriate quantity of one of the buffer solutions was added, in order to achieve a final concentration of 1 mg/ml. The sample solutions were vortexed and sonicated for 10 minutes. Fifty μl aliquots were placed into 1.5 ml amber autosampler vials. The reaction was quenched at a selected time interval by addition of 450 μl DMSO to the vial.

[7] = Route-to-route comparison of indolocarbazole I-5 formation from lysyl-β-alaninate in rats; format: in vivo, rat; conditions: for plasma levels of indolocarbazole I-5: intravenous 8.01 mg/kg
Protocol: Groups of 12 male Sprague-Dawley rats were administered lysyl-β-alaninate dihydrochloride via intravenous or subcutaneous injection, as well as by oral gavage at a dose of 8.01 mg/kg. This dose was designed to deliver a 5 mg/kg equivalent dose of indolocarbazole I-5 following complete hydrolysis of the indolocarbazole ester. The volume of the dosing solution was adjusted on the basis of body weight. At 5, 30, 60, and 120 minutes after intravenous injection and 30, 60, 120, and 240 minutes after either subcutaneous injection or oral gavage, the animals were anesthetized with carbon dioxide and a sample of whole blood was obtained by cardiac puncture. The blood was placed into a heparinized container containing 100 μL 50% potassium fluoride (an inhibitor of plasma esterases) and 10 μL phenylmethylsulfonylfluoride (an inhibitor of plasma amidase). Following centrifugation, the resulting plasma was frozen in a dry-ice/isopropanol bath and kept frozen at −90° C. prior to analysis.
For analysis, the samples were thawed, internal standard was added, and the mixture was extracted with 5 mL methylene chloride. Standards in rat plasma were prepared as described previously. All tubes (standards and experimentals) were extracted for 15 minutes by shaking, and centrifuged. The methylene chloride layer was removed, dried under a stream of nitrogen, and reconstituted in DMSO. Fifty μL of the reconstituted extracts was analyzed by reverse-phase HPLC with detection at 290 nm. The mobile phase and gradient conditions are the same as those given in Example 17.

[8] = system: Dunning R-3327 AT-2 rat prostate tumor; experiment: Anti-tumor efficacy against the androgen-independent AT-2 rat prostate tumor; format: in vivo; conditions: for Tumor volume Day 0: Day 0, daily sc dosing; for Tumor volume Day 0 / Tumor volume Day 3 / Tumor volume Day 6 / Tumor volume Day 9 / Tumor volume Day 13: Mean ± SE; for Tumor volume Day 3: Day 3, daily sc dosing; for Tumor volume Day 6: Day 6, daily sc dosing; for Tumor volume Day 9: Day 9, daily sc dosing; for Tumor volume Day 13: Day 13, daily sc dosing; for inhibiting the growth of AT-2 tumors: adult male Copenhagen rats; for inhibition of tumor growth: by Day 13 of dosing
Protocol: Rat prostate cancer Dunning R-3327 AT-2.1 cells (Isaacs et al., Prostate 9:261-281, 1986) were grown at 37 C. in a humidified incubator, with a 95% air/5% CO2 atmosphere, in RPMI-1640 medium containing 10% fetal calf serum, 250 nM dexamethasone, 2 mM glutamine, penicillin (100 I.U./mL), and streptomycin (100 μg/mL), and 1 mM sodium pyruvate. The cells were determined to be free of mycoplasma and rodent viruses (MAP testing) by Microbiological Associates. Exponentially growing cells were harvested using 6 mL of warm trypsin. The total volume was brought up to 10 mL with media to neutralize trypsin and cells were counted. The cells were then collected by brief centrifugation, and cell pellet was resuspended in Hanks' Balanced Salt Solution to achieve the final concentration of 1×10^7 live cells/mL.
Male inbred Copenhagen rats (200-225 g) obtained from Harlan Sprague-Dawley, Indianapolis, Ind., were maintained three rats/cage and given a commercial diet (Purina Formulab 5001) and water ad libitum. Animals were housed under humidity- and temperature-controlled conditions and light/dark cycle was set at 12-hour intervals. Rats were quarantined for one week before experimental manipulation. Tumor cell implantation and growth
Fifty adult male Copenhagen rats were inoculated with live AT-2 cells (1×10^6 cells/rat) into their right flank. Seven days later, rats bearing AT-2 tumors (approximately 0.5‥0.7 cm^3 in volume) were divided into five groups of ten animals each. A description of the experimental groups is given below. Dosing volumes of either I-5 or its lysyl-β-alaninate ester (1 mL/kg) were based on the average weight of the animals in each dosing group and were adjusted as necessary twice a week. Tumors were measured in anesthetized animals (isofluorane vapor for approximately 1-2 minutes) every 3-4 days using a vernier caliper. Tumor volume was calculated using the formula:
V(cm)=0.5236×length(cm)×width(cm)[(length(cm)+width(cm))/2].
Indolocarbazole I-5 was dissolved in vehicle defined below:
(I-5)-Lysyl-β-alaninate was dissolved in 50 mM sodium acetate buffer, pH 5.5.

[9] = system: Dunning R-3327 AT-2 rat prostate tumor; conditions: see WO 94/27982; cited from earlier work

Structure (SMILES)	Spinal Cord ChAT Activity (% of Control) 500 nM [1]	Spinal Cord ChAT Activity (% of Control) 1000 nM [1]	rate of conversion to indolocarbazole I-5 [2]	hydrolysis of the ester [3]	rates of hydrolysis [4]	hydrolysis to indolocarbazole I-5 in vivo [5]	time ester could be detected in plasma following administration [5]	solubility in Tris buffer [6]	solubility in acetate buffer [6]	solubility in phosphate buffer [6]	solubility in water [6]	Tumor volume Day 0 [8]	Tumor volume Day 3 [8]	Tumor volume Day 6 [8]	Tumor volume Day 9 [8]	Tumor volume Day 13 [8]	inhibiting the growth of AT-2 tumors [8]	inhibition of tumor growth [8]	also measured
COC1(COC(=O)CC(C)N(C)C)CC2OC1(C)n1c3ccccc3c3c4c(c5c6ccccc6n2c5c31)C(=O)NC4.Cl (stereo not shown) [Example 8, (I-5)-Dimethylaminobutyrate Hydrochloride]	inactive	138 % of Control	low rate of conversion	rapid hydrolysis	similar	rapidly hydrolyzed	two	not completely soluble	completely soluble	not completely soluble	completely soluble								
COC1(COC(=O)CCN)CC2OC1(C)n1c3ccccc3c3c4c(c5c6ccccc6n2c5c31)C(=O)NC4.Cl (stereo not drawn) [Example 11, (I-5)-β-Alaninate Hydrochloride]	138 % of Control	149 % of Control		rate of hydrolysis was markedly reduced	similar	rapidly hydrolyzed	one	not completely soluble	completely soluble	not completely soluble	completely soluble								
COC1(COC(=O)CCNC(=O)C(N)CCCCN)CC2OC1(C)n1c3ccccc3c3c4c(c5c6ccccc6n2c5c31)C(=O)NC4.Cl.Cl (stereo not drawn) [Example 14, (I-5)-Lysyl-β-Alaninate Dihydrochloride]	121 % of Control	147 % of Control	low rate of conversion	initial hydrolysis of the amide bond between the two amino acids appears to be the first metabolic event followed by hydrolysis of the ester linkage				completely soluble	completely soluble	completely soluble	completely soluble	0.6 ± 0.1 cm^3	1.5 ± 0.2 cm^3	2.1 ± 0.2 cm^3	4.8 ± 0.6 cm^3	8.3 ± 0.5 cm^3	effective	72%	plasma levels of indolocarbazole I-5 ([7]; 5 minutes after dosing): approximately 600 ng/mL; plasma levels of indolocarbazole I-5 ([7]; 2 hours after dosing): approximately 80 ng/mL; plasma levels of I-5 ([7]; oral dose 8.01 mg/kg, limit of quantitation): < 50 ng/mL; conversion to I-5 in vivo ([7]; rat): rapidly converted; plasma levels of I-5 ([7]; subcutaneous 8.01 mg/kg, all time points examined): approximately 70 ng/mL
COC1(CO)CC2OC1(C)n1c3ccccc3c3c4c(c5c6ccccc6n2c5c31)C(=O)NC4 (stereo not shown) [Example I-5, reference compound]												0.7 ± 0.1 cm^3	1.6 ± 0.2 cm^3	2.1 ± 0.1 cm^3	5.4 ± 0.7 cm^3	11.6 ± 1.8 cm^3	effective	53%	growth inhibition of Dunning R-3327 AT-2 rat prostate tumor in vivo [9]: growth inhibitory properties
